Data on nine compounds can be found in PubChem BioAssay (NCI).

Test systems include OVCAR-4 ovarian; HCT-15 colon; SK-MEL-5 melanoma; SF-268 CNS; SN12C renal; SNB-75 CNS; M14 melanoma; UACC-257 melanoma; HT29 colon; MOLT-4 leukemia.
Holding throughout (assay): NCI anticancer screen, dose series, 48 h

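Cultured in 96-well plates, cells were exposed to test compound for 48 hours across five concentrations. GI50 is the concentration that inhibits growth by half. Definition used: TGI = concentration required for complete inhibition of growth.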

Regarding `CN1CC[C@@H](c2c(O)cc(O)c3c(=O)cc(-c4ccc(C(F)(F)F)cc4Cl)oc23)[C@@H]1CO`, the GI50 in the assay with OVCAR-4 ovarian is 23.6 µM; in the assay on HCT-15 colon, 20.9 µM; with SK-MEL-5 melanoma, 15.4 µM; in the assay on SF-268 CNS, 15.2 µM; in the assay with SN12C renal, 16.4 µM; with SNB-75 CNS, 6.89 µM. Also, the values for the GI50 with M14 melanoma, in the assay on UACC-257 melanoma and in the assay on HT29 colon were 17.8 µM, 26.6 µM and 17.6 µM, respectively. Besides, the TGI in the assay on OVCAR-4 ovarian is 83.2 µM; with HCT-15 colon, 78.2 µM; in the assay with SK-MEL-5 melanoma, 30.7 µM; in the assay on SF-268 CNS, 39.6 µM; in the assay on SN12C renal, 44.6 µM; in the assay with SNB-75 CNS, 22 µM. Also, the figures for the TGI in the assay on M14 melanoma, with UACC-257 melanoma and in the assay on HT29 colon were 33.8 µM, 46.7 µM and 33.9 µM, respectively.

For the compound `COC(=O)c1cc2c(s1)-c1nccc3c1c(nc1ccccc13)C2=O`, the GI50 in the assay on MOLT-4 leukemia was over 100 µM; with OVCAR-4 ovarian, over 100 µM; in the assay on HCT-15 colon it was over 100 µM; with SK-MEL-5 melanoma, 33.8 µM; with SF-268 CNS it was 29.1 µM; in the assay with SN12C renal, over 100 µM. Moreover, the values for the GI50 in the assay on M14 melanoma, in the assay on UACC-257 melanoma and in the assay on HT29 colon were 97.7 µM, 32 µM and over 100 µM, respectively. In addition, the TGI with MOLT-4 leukemia, in the assay with OVCAR-4 ovarian, with HCT-15 colon, with SK-MEL-5 melanoma, in the assay on SF-268 CNS and with SN12C renal was over 100 µM throughout. Moreover, the TGI in the assay on M14 melanoma, in the assay with UACC-257 melanoma and in the assay with HT29 colon was over 100 µM in each case.

On to `CC1CCN(C(=O)OCc2nc3nc(Cl)nc(N4CCOCC4)c3[nH]2)CC1`, for which the GI50 in the assay on MOLT-4 leukemia was 0.704 µM; with OVCAR-4 ovarian it was 1.35 µM; in the assay on HCT-15 colon, 0.634 µM; in the assay on SK-MEL-5 melanoma, 1.74 µM; in the assay on SF-268 CNS, 1.42 µM; in the assay with SN12C renal, 0.865 µM. In addition, the results for the GI50 with SNB-75 CNS, with UACC-257 melanoma and with HT29 colon were 1.06 µM, 1.73 µM and 0.831 µM, respectively. Further, the TGI was found to be 4.04 µM in the assay on MOLT-4 leukemia; 2.72 µM in the assay with OVCAR-4 ovarian; 2.22 µM in the assay with HCT-15 colon; 3.14 µM in the assay with SK-MEL-5 melanoma; 2.84 µM in the assay with SF-268 CNS; 2.16 µM in the assay on SN12C renal. Besides, the figures for the TGI in the assay with SNB-75 CNS, in the assay on UACC-257 melanoma and with HT29 colon were 2.29 µM, 3.76 µM and 6.38 µM, respectively.

Turning to `CCOC(=O)c1ccc(N=Nc2cc(C(=O)OCC)ccc2O)cc1`, the TGI with MOLT-4 leukemia, with HCT-15 colon, with SK-MEL-5 melanoma, in the assay on SF-268 CNS, in the assay with SN12C renal and in the assay on M14 melanoma was over 100 µM in each case. Also, in the assay on HT29 colon, the TGI is over 100 µM.

With `BrCc1cccc(C[P+](c2ccccc2)(c2ccccc2)c2ccccc2)c1`, the GI50 with MOLT-4 leukemia was 65 µM; in the assay on OVCAR-4 ovarian it was 9.02 µM; in the assay with HCT-15 colon it was over 100 µM; in the assay on SK-MEL-5 melanoma, 5.14 µM; in the assay on SF-268 CNS, 40.4 µM; in the assay on SN12C renal, 18.4 µM. Moreover, the GI50 was 6.78 µM in the assay on SNB-75 CNS, 5.49 µM in the assay on UACC-257 melanoma and 14.9 µM in the assay on HT29 colon. For the same compound, the TGI in the assay with MOLT-4 leukemia is over 100 µM; in the assay with OVCAR-4 ovarian, over 100 µM; in the assay with HCT-15 colon it was over 100 µM; with SK-MEL-5 melanoma it was 24 µM; in the assay on SF-268 CNS it was over 100 µM; with SN12C renal, over 100 µM. The TGI in the assay with SNB-75 CNS, in the assay with UACC-257 melanoma and with HT29 colon was over 100 µM throughout.

For `Oc1ccc(Nc2c3ccccc3nc3occ(Cl)c23)cc1`, the GI50 is 3.14 µM in the assay on MOLT-4 leukemia; 7.44 µM in the assay with OVCAR-4 ovarian; 4.77 µM in the assay with HCT-15 colon; 3.92 µM in the assay on SK-MEL-5 melanoma; 4.26 µM in the assay on SF-268 CNS; 2.89 µM with SN12C renal. For the same compound, the GI50 with M14 melanoma was 3.79 µM; in the assay with HT29 colon, 4.49 µM. Moreover, the TGI in the assay on MOLT-4 leukemia is 13.2 µM; in the assay on OVCAR-4 ovarian, over 100 µM; in the assay with HCT-15 colon, over 100 µM; with SK-MEL-5 melanoma it was 18.3 µM; with SF-268 CNS it was over 100 µM; in the assay with SN12C renal, 26.4 µM. In addition, the TGI was 26.8 µM with M14 melanoma and over 100 µM in the assay on HT29 colon.

As for `O=C1c2cccc3cccc(c23)C(=O)N1CCCCCN1CCN(CCCCCOc2ccc(-c3nc4ccc(N5CCOCC5)cc4[nH]3)cc2)CC1`, the GI50 in the assay on MOLT-4 leukemia was 0.264 µM; with OVCAR-4 ovarian, 7.04 µM; in the assay on HCT-15 colon, 2.62 µM; in the assay with SK-MEL-5 melanoma it was 6.43 µM; in the assay on SF-268 CNS, 22.4 µM; in the assay with SN12C renal it was over 100 µM. The values for the GI50 in the assay with SNB-75 CNS, with UACC-257 melanoma and in the assay with HT29 colon were 18.3 µM, 2.15 µM and 5.99 µM, respectively. Besides, the TGI in the assay on MOLT-4 leukemia is 2.29 µM; with OVCAR-4 ovarian it was 28.3 µM; in the assay on HCT-15 colon, 8.63 µM; in the assay on SK-MEL-5 melanoma, 19.9 µM; in the assay with SF-268 CNS, 43.2 µM; in the assay with SN12C renal it was over 100 µM. Also, the TGI stood at 34.6 µM in the assay with SNB-75 CNS, 3.76 µM in the assay on UACC-257 melanoma and 23.8 µM in the assay with HT29 colon.

In the case of `O=C(NNc1ccccc1)C(=O)NNc1ccccc1`, the GI50 in the assay with MOLT-4 leukemia is 1.6 µM; with OVCAR-4 ovarian, 1.83 µM; with HCT-15 colon it was 0.746 µM; in the assay on SK-MEL-5 melanoma, 10.8 µM; with SF-268 CNS, 1.63 µM; in the assay with SN12C renal, over 100 µM. The results for the GI50 in the assay with SNB-75 CNS, with UACC-257 melanoma and in the assay with HT29 colon were 11.6 µM, over 100 µM and over 100 µM, respectively. Also, the TGI in the assay on MOLT-4 leukemia, with OVCAR-4 ovarian, in the assay with HCT-15 colon, in the assay on SK-MEL-5 melanoma, with SF-268 CNS and with SN12C renal was over 100 µM in each case. The TGI in the assay with SNB-75 CNS, in the assay on UACC-257 melanoma and in the assay on HT29 colon was over 100 µM in each case.

`Cn1cc(-c2csc(-c3c[nH]c4ccc(Br)cc34)n2)c2cnccc21`: the GI50 in the assay on OVCAR-4 ovarian was 2.35 µM; with HCT-15 colon, 1.38 µM; with SK-MEL-5 melanoma, 1.88 µM; in the assay with SF-268 CNS, 2.83 µM; with SN12C renal it was 1.75 µM; with M14 melanoma it was 1.87 µM. For the same compound, the TGI in the assay with OVCAR-4 ovarian amounted to 5.71 µM; in the assay with HCT-15 colon it was 2.85 µM; with SK-MEL-5 melanoma, 4.25 µM; with SF-268 CNS, 7.96 µM; with SN12C renal, 3.35 µM; in the assay on M14 melanoma, 3.61 µM.
